Measured values from the METLIN SMRT retention time set (Domingo-Almenara et al. 2019).

Assay: gradient 5% acetonitrile 3 min, to 50% in 2 min, to 85% in 15 min, held 3 min, 100 µL/min
Details: column: Zorbax Extend-C18 2.1 x 50 mm; eluents: water / acetonitrile, 0.1% formic acid
How it was run: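 Pure standards were run in mixtures of ~100 molecules by HPLC coupled to a quadrupole time-of-flight mass spectrometer. The column was a Zorbax Extend-C18 (2.1 × 50 mm, 1.8 μm) at 100 μL/min, with water and acetonitrile each containing 0.1% formic acid, in positive and negative ionization mode. Dead and dwell volumes were 40 μL and 900 μL. Retention time was taken from computationally picked adduct peaks, each manually inspected, with data collected over 3 months.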

RP-LC retention time [s] | SMILES
896 | CC(C)n1c(=O)sc2cc(S(=O)(=O)N3CCC(C(=O)NC4CCCC4)CC3)ccc21
885 | Cc1cc(OCC(=O)Nc2cccc(C)c2C)nc(N2CCN(c3ccccc3)CC2)n1
593 | Cc1cccc(Cl)c1NC(=O)Cn1ncc2c(N3CCN(c4ccccn4)CC3)ncnc21
989 | CCCn1cc(S(=O)(=O)Nc2ccc(F)cc2Cl)c2cccnc21
692 | CN1C(=O)Cc2cc(C(=O)NC3CCCCC3)ccc21
1010 | COC(=O)COC(=O)c1cn(-c2cccc(Cl)c2)c(=O)c2ccccc12
704 | Cc1ccc(-c2nc3nc(C)cc(C)n3c2Nc2ccc3c(c2)OCCO3)cc1
698 | CCn1ccc(C(=O)Nc2ccc3c(c2)Sc2ncccc2C(=O)N3C)n1
922 | O=C(COc1ccccc1)N1CCN(C(=O)c2nnn3c2COC(c2ccc(Cl)cc2)C3)CC1 (stereo not drawn)
959 | COc1cc(OC)cc(N2C(=O)C3N=NN(Cc4nc(-c5ccccc5)no4)C3C2=O)c1 (stereo not drawn)
765 | Cc1ccc(OCC(=O)Nc2nnc(C3CC(=O)N(c4ccccc4)C3)o2)cc1 (stereo not drawn)
659 | CCOC(=O)c1csc(NC(=O)C2CCCN(c3ccc(-c4ccccc4)nn3)C2)n1 (stereo not drawn)
915 | COc1ccc(N2CCN(CC(=O)Nc3ccc4c(c3)Cc3ccccc3-4)C2=O)cc1
928 | CCc1ccc(C2=C(C)C(N3CCCN(C(=O)NC(C)(C)C)CC3)=NS2(=O)=O)cc1
769 | O=C(NCc1ccccc1Cl)C1CCN(c2cnc3nccnc3c2)CC1
857 | CCOc1ccccc1NC(=O)Cn1cccc(S(=O)(=O)N2CCC(C)CC2)c1=O
1050 | CCC(Sc1nnc2c(n1)[nH]c1ccccc12)C(=O)Nc1nc(-c2ccccc2)cs1 (stereo not drawn)
951 | COc1cc(OC)cc(-c2noc(CCn3nc(-c4ccccc4)ccc3=O)n2)c1
921 | Cc1cccc(CNC(=O)C2(c3ccc(NS(C)(=O)=O)cc3)CCCCC2)c1
725 | CN1C(=O)C2(CCN(C(=O)c3ccc(C#N)cc3)C2)c2ccccc21 (stereo not drawn)
854 | COc1cccc(-c2noc(C3CCCN3C(=O)c3ccoc3)n2)c1 (stereo not drawn)
1200 | COc1cccc(N2CCN(S(=O)(=O)c3cc(-c4cc(C(F)(F)F)on4)cs3)CC2)c1

RP-LC retention time [s] | SMILES
592 | CCn1cnc(S(=O)(=O)N2CCC(C(=O)Nc3ccc(C)cn3)CC2)c1
786 | CC(C)CNC(=O)C1CCN(c2nc3ccsc3c(=O)n2-c2ccccc2)CC1
643 | CNS(=O)(=O)c1cc(C(=O)Nc2cc(C)on2)oc1C
773 | CCOC(=O)c1[nH]c(C)c(CCC(=O)N2CCC(C(=O)NCc3cccc(OC)c3)CC2)c1C
724 | NC(=O)c1ccc2c(c1)CCCN2C(=O)c1cccc(Cl)c1
726 | O=C1CCCCC(C(=O)N2CCc3ccccc32)N1 (stereo not drawn)
1020 | CCc1noc(NC(C)=O)c1-c1ccc(C)c(S(=O)(=O)N2CC=C(c3ccccc3)CC2)c1
1140 | O=C1c2ccccc2C(=O)c2sc(Nc3ccc(Cl)c(Cl)c3)nc21
832 | CCN(CC)C(=O)CN1C(=O)C2CCCCN2c2ccc(S(=O)(=O)N3CCCC3)cc21 (stereo not drawn)
1160 | Cc1sc(-c2cc(C(F)(F)F)on2)cc1S(=O)(=O)NCc1ccc(F)cc1
932 | CC(CNC(=O)c1nc(Cn2c(=O)oc3ccccc32)no1)c1ccccc1 (stereo not drawn)
699 | C=CCn1c(NCc2ccccc2Cl)nc2ccccc21
835 | CCNC(=O)C1CCN(c2nc3ccc(-c4ccccc4)nc3s2)CC1
794 | CCc1noc(NC(C)=O)c1-c1ccc(OC)c(S(=O)(=O)Nc2ccc(F)cc2F)c1
1140 | CC(C)(C)c1ccc(-c2noc(-c3nn(-c4cccc(F)c4)ccc3=O)n2)cc1
1090 | CCOc1ccc(OCC)c(NC(=O)CN2C(=O)C(C)(C)c3ccccc32)c1
700 | Cn1ncc2c3ccccc3n(CC(=O)N3CCN(c4ncccn4)CC3)c2c1=O
1110 | O=C(c1nc2ccccc2s1)N(Cc1ccsc1)Cc1ccco1
966 | COc1ccc(-c2cc3c(=O)n(Cc4nc(-c5ccccc5)oc4C)ccn3n2)cc1OC
718 | Cc1cc(N2CCOCC2)nc(N2CCN(S(=O)(=O)c3ccc(Br)cc3)CC2)n1
802 | O=C(NCCC1=CCCCC1)C1CCN(C(=O)C2Sc3ccccc3NC2=O)CC1 (stereo not drawn)
612 | CCc1nnc([C@@H]2CC(F)(F)CN2C(=O)Cn2nc(C)cc2C)o1

RP-LC retention time [s] | SMILES
740 | COC(=O)c1c(NCc2ccco2)c2cccc(Cl)c2[nH]c1=O
706 | CCCN1CCN(C(=O)c2cn3ccnc(-c4ccccc4)c3n2)CC1
723 | COC1CCC12CCN(C(=O)c1ccoc1)CC2 (stereo not drawn)
807 | CCc1nnc(-c2cc(C)n(CC(=O)Nc3cc(OC)cc(OC)c3)c2C)o1
718 | Cc1noc([C@@H]2CC(F)(F)CN2C(=O)CCc2c(C)noc2C)n1
928 | CCc1cccc(NC(=O)N2CCc3c(c(-c4nc(C5CC5)no4)nn3C)C2)c1
614 | CCC(=O)NCc1nc2c(n1CC)CN(C(=O)c1ccc(C(F)(F)F)cc1)CC2
842 | O=C(NCc1ccsc1)C(=O)NCc1ccccc1Cl
584 | COc1ccc2nc(CN3CCN(S(=O)(=O)c4cccs4)CC3)[nH]c2c1
783 | O=C(Nc1nnc(-c2ccco2)o1)C1c2ccccc2Oc2ccccc21
874 | Cc1ccc(N2CC(c3nc(-c4ccc(CNC(=O)C5CC5)s4)no3)CC2=O)cc1C (stereo not drawn)
630 | CCCOc1ccc(CN2C[C@@H]3C(=O)N(CCCN4CCCC4=O)C(=O)[C@@H]3C2)cc1
669 | COc1ccc(N2CC(c3nc(-c4ccccc4)no3)CC2=O)cc1OC (stereo not drawn)
709 | Cc1noc(-c2nn(C)c3c2CN(C(=O)Nc2ccccc2C(F)(F)F)CC3)n1
607 | CN1C(=O)c2ccccc2C(C(=O)NCc2ccccn2)C1c1cccs1 (stereo not drawn)
774 | COc1ccc(NS(=O)(=O)c2cc3c(s2)CCN(C(=O)C2CC2)C3)cc1
800 | COc1cc(C(=O)N2CCN(c3cc(=O)n(C(C)C)c(=O)n3C(C)C)CC2)cc(OC)c1OC
777 | COc1ccccc1N1CCN(c2cc(SCC(=O)NCc3ccco3)ncn2)CC1
666 | COCc1nc(N2CCN(c3ccc(OC)cc3)CC2)ncc1C(=O)O
605 | COc1cc2nc(SCC(=O)Nc3cc(C)[nH]n3)n3nc(C)nc3c2cc1OC
808 | COc1cc(Nc2nc(C(=O)N3CCCCC3)cc3occc23)cc(OC)c1OC
767 | CC(C)c1nncn1C1CCN(S(=O)(=O)c2cccc(Cl)c2)CC1

RP-LC retention time [s] | SMILES
1190 | CCCCCC(=O)Nc1nc(-c2ccc(C)cc2C)cs1
684 | CCCCNC(=O)C1CCN(C(=O)Nc2ccc(NC(=O)NC3CCCC3)cc2)CC1
1190 | Cc1cccc(-c2noc(Cc3nnc(-c4ccc(C)c(C)c4)o3)n2)c1
740 | O=C(NCc1csc(C2CCN(C(=O)c3c(F)cccc3F)CC2)n1)C1CCC1
664 | O=C(CSc1ccc(N2CCCC(C(=O)NC3CC3)C2)nn1)Nc1ccccc1Br (stereo not drawn)
609 | O=C(Cc1nnc2c(-c3nc(C4CC4)no3)cccn12)N1CCOCC1
1060 | O=C(C1CCC1)N1CCCC1c1nc(-c2cccc(Cl)c2)no1 (stereo not drawn)
856 | COc1ccc(-c2nc(NC3CCCCC3)c3ccccc3n2)cc1
1020 | Cc1cc(C)cc(S(=O)(=O)N2CCC(C(=O)NCCc3csc(-c4ccccc4)n3)CC2)c1
600 | O=C(CSc1ccncc1)N1CC2CN(S(=O)(=O)c3cccc(F)c3)CC(C1)O2
1140 | Cc1csc(-c2cc(S(=O)(=O)NCCC3=CCCCC3)cn2CC(=O)N2CCCCC2)n1
726 | CCc1ccc(CNC(=O)CCCN2C(=O)CCn3nc(C)cc32)cc1
826 | CCCCNC(=O)c1c(C)c2c(=O)n(CC(=O)Nc3ccc(Br)cc3)ncn2c1C
569 | Cc1ccc(OCCOCC(O)CN(CCO)CCO)cc1C (stereo not drawn)
615 | CCc1cccc(C)c1NC(=O)Cn1nc2c3cccc(C)c3ncn2c1=O
743 | COc1ccc(-c2cn3c(CC(=O)N4CCN(c5ccc(F)cc5)CC4)csc3n2)cc1OC
1040 | Cc1cc(-c2nnc(-c3ccc(F)cc3)o2)c(C)n1CC(=O)Nc1ccc(F)c(F)c1
859 | O=C1COc2ccc(S(=O)(=O)N3CCC(C(=O)Nc4cccc(Br)c4)CC3)cc2N1
1020 | CCCCn1cc(S(=O)(=O)Nc2ccc(Cl)cc2F)c2cccnc21
567 | COC(=O)c1ccc(C(=O)NCC2CCN(Cc3ccccc3SC)CC2)cc1

SMILES | RP-LC retention time [s]
Cc1ccc(S(=O)(=O)CCc2noc(C(=O)N3CCC4(CC3)OCCO4)n2)cc1 | 816
COc1ccc2c(c1)C1(CCN(C(=O)COc3ccc(Cl)cc3)C1)C(=O)N2C (stereo not drawn) | 878
